Source: patent publication US11542246B2, “Quinoline compounds as IRAK inhibitors and uses thereof” (Merck Patent GmbH, priority 2018, dated 2023)

Columns and labels:
IRAK4 = IRAK4 (Homo sapiens, UniProt Q9NWZ3); assay: IRAK4 Enzymatic Assay; format: biochemical; details: His-TEV-IRAK4, ATP 2 μM, STK1-biotin peptide 300 nM, 3 hours at 30° C.
Protocol: IRAK4 Enzymatic Assay IRAK4 is a human purified recombinant enzyme ([…]. IRAK4 hydrolyses ATP, autophosphorylates and phosphorylates a Serine/Threonine generic peptidic substrate (STK: 61ST1BLC from CisBio International based in Bagnols/Cèze FR). Measurement of IRAK-4 inhibition was performed in streptavidin coated 384 well FlashPlate (PerkinElmer #SM[…]). His-TEV-IRAK4 (20 ng/well), ATP (2 μM, [^33P]ATP 0.25 μCi/well), STK1-biotin peptide (300 nM) and compounds in DMSO (range of concentrations from 20 μM to 1 nM) or controls (2% DMSO) were incubated for 3 hours at 30° C. in assay buffer: Hepes pH7.0 50 mM, Fatty acid-free BSA 0.1%, Dithiothreitol DTT 2 mM, MgCl2 10 mM, EGTA 0.5 mM, Tween-20 0.01%, MnCl2 5 mM. Kinase reaction was stopped by addition of EDTA.

[1] = system: TLR7 induced IL-6 secretion in human mononuclear cells (PBMC's); assay: TLR7 induced IL-6 in Human PBMC's; format: cell-based; details: TLR7 specific ligand 2 uM overnight, IL-6 Alpha LISA
Protocol: TLR7 induced IL-6 in Human PBMC's
Human PBMC assay was used as one of the functional assays to monitor the activity of IRAK1 and IRAK4 small molecule inhibitors on TLR7 induced IL-6 secretion in human mononuclear cells (PBMC's). Human PBMCs were prepared from buffy coats (whole blood enriched with leukocytes and platelets) obtained from healthy volunteers used either fresh or frozen are plated in assay media (RPMI+2% P/S/L-glu+10% HI-FBS) and pre-treated with compounds in DMSO/media (range of concentrations from 25 uM to 0.4 nM) or controls (0.25% DMSO) for 30 minutes at 37° C. in assay media. Following pre-treatment with IRAK1 and IRAK4 inhibitors, PBMC's were stimulated with TLR7 specific ligand (2 uM) overnight (16-18 hrs) at 37° C. After incubation supernatant was transferred to 384 well PE AlphaPlate-384 (6005350) and IL-6 is quantified using Perkin Elmer IL-6 Alpha LISA kit (AL223C). Plates were read on an Envision® plate reader with Alpha Technology®.

IRAK1 = IRAK1 (Homo sapiens (Human), UniProt P51617); assay: IRAK1 Enzymatic Assay; format: biochemical; details: His-TEV-IRAK1 (194-712), ATP 1 μM, 3 hours at 30° C.
Protocol: IRAK1 is a human purified recombinant enzyme (His-TEV-IRAK1 (194-712)). In this assay, IRAK-1 hydrolyses ATP and autophosphorylates. Measurement of IRAK-1 inhibition was performed in streptavidin coated 384 well FlashPlate (PerkinElmer #SMP410A). His-TEV-IRAK-1 (15 ng/well), ATP (1 μM, [33P]ATP 0.25 μCi/well) and compounds in DMSO (range of concentrations from 20 μM to 1 nM) or controls (2% DMSO) were incubated for 3 hours at 30° C. in assay buffer: Hepes pH7.0 50 mM, Fatty acid-free BSA 0.1%, Dithiothreitol DTT 2 mM, MgCl2 10 mM, EGTA 0.5 mM, Triton-X-100 0.01%. Kinase reaction was stopped by addition of EDTA. Supernatant was discarded, plates were washed three times with 150 mM NaCl and radioactivity was then measured in a Microbeta Trilux reader.

IRAK1, sequence (P51617 194-712): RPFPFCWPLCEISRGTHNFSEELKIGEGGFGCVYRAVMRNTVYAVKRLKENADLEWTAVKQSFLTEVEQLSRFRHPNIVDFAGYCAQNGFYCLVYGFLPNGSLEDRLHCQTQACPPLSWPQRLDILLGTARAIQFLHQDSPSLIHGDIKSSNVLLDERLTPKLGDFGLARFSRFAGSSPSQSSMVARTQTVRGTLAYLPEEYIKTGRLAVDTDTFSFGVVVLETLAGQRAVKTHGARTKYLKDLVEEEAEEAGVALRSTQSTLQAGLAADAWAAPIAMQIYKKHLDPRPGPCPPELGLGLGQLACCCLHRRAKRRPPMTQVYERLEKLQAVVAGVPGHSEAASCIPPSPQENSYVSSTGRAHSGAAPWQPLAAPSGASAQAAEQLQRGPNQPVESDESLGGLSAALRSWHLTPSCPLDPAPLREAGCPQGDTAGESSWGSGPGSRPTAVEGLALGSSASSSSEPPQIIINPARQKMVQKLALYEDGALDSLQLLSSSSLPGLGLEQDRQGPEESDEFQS
IRAK4, sequence (Q9NWZ3 whole entry, looked up): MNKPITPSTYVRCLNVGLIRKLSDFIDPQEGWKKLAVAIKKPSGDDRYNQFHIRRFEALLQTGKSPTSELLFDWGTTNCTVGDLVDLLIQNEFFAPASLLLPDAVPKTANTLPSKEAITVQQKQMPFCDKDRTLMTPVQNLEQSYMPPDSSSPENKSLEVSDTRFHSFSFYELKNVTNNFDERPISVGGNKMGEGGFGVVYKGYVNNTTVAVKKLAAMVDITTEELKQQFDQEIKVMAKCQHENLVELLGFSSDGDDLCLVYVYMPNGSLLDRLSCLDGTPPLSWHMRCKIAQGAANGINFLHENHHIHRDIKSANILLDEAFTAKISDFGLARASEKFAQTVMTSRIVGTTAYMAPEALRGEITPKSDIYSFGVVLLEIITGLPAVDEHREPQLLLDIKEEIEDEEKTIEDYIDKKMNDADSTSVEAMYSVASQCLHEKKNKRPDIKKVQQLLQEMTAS

Structure (SMILES) | IC50 (IRAK4) [µM] | IC50 [1] [µM] | IC50 (IRAK1) [µM]
COc1nc2c(OCC3CCC(=O)N3)cccc2cc1C(N)=O (stereo not shown) [Compound 1, 2-Methoxy-8-(5-oxo-pyrrolidin-2-ylmethoxy)-quinoline-3-carboxylic acid amide] | < 0.1 | < 0.5 | > 5
COc1cc2c(OCC3CCC(=O)N3)cccc2nc1C(N)=O (stereo not shown) [Compound 2, 3-Methoxy-5-(5-oxo-pyrrolidin-2-ylmethoxy)-quinoline-2-carboxylic acid amide] | 0.1 to 1 |  | > 5
COc1nc2c(OC[C@@H]3CCC(=O)N3)cccc2cc1C(N)=O [Compound 3, 2-Methoxy-8-((S)-5-oxo-pyrrolidin-2-ylmethoxy)-quinoline-3-carboxylic acid amide] | < 0.1 | < 0.5 | 1 to 5
CC[C@@H]1[C@H](F)C(=O)N[C@@H]1COc1cccc2cc(C(N)=O)c(OC)nc12 [Compound 4, 8-((2S,3S,4S)-3-Ethyl-4-fluoro-5-oxo-pyrrolidin-2-ylmethoxy)-2-methoxy-quinoline-3-carboxylic acid amide] | < 0.1 | < 0.5 | 0.1 to 1
COc1nc2c(OC[C@@H]3CC(F)(F)C(=O)N3)cccc2cc1C(N)=O [Compound 5, 8-((S)-4,4-Difluoro-5-oxo-pyrrolidin-2-ylmethoxy)-2-methoxy-quinoline-3-carboxylic acid amide] | < 0.1 | < 0.5 | 1 to 5
CC[C@@H]1[C@H](F)C(=O)N[C@@H]1COc1nccc2cc(C(N)=O)c(OC)nc12 [Compound 6, 8-((2S,3S,4S)-3-Ethyl-4-fluoro-5-oxo-pyrrolidin-2-ylmethoxy)-2-methoxy-[1,7]naphthyridine-3-carboxylic acid amide] | < 0.1 |  | 1 to 5
